Assay results from US8796244B2, “Imidazopyridine derivatives as inhibitors of receptor tyrosine kinases” (Astex Therapeutics Ltd, priority 2008, dated 2014).
Structures can show the parent of a compound that is named as a salt. Where two headings read alike, the source gives them in different places.

How the values were obtained:
[1] = tested on: parental wild-type Ba/F3 cells; test: Ba/F3 (WT) cell proliferation assay (Alamar Blue); type: cell-based; settings: Mus musculus; for IC50: 72 hours, Alamar Blue, read-out: BaF3 WT prolif
[2] = molecular target: FGFR3 (Homo sapiens (Human), UniProt P22607); test: FGFR3 in vitro kinase inhibitory activity assay (TRF)
[3] = molecular target: VEGFR2 (Homo sapiens (Human), UniProt P35968); test: VEGFR2 in vitro kinase inhibitory activity assay (TRF, Flt3 substrate); type: biochemical
[4] = tested on: Ba/F3-TEL-FGFR3 cells; test: Ba/F3-TEL-FGFR3 cell proliferation assay (Alamar Blue); type: cell-based; settings: for IC50: 72 hours, Alamar Blue, read-out: BaF3-TEL-FGFR3 prolif
[5] = tested on: LP-1 cell line (FGF-1/Heparin induced pERK); test: Cell-based pERK ELISA, LP-1 cells; settings: Homo sapiens, LP-1, read-out: LP-1 pERK ELISA (μM)
[6] = BaF3, read-out: BaF3 WT prolif, % inhibition
[7] = BaF3, at 10 μM, read-out: BaF3 WT prolif, % inhibition

FGFR3, sequence (P22607 23-806): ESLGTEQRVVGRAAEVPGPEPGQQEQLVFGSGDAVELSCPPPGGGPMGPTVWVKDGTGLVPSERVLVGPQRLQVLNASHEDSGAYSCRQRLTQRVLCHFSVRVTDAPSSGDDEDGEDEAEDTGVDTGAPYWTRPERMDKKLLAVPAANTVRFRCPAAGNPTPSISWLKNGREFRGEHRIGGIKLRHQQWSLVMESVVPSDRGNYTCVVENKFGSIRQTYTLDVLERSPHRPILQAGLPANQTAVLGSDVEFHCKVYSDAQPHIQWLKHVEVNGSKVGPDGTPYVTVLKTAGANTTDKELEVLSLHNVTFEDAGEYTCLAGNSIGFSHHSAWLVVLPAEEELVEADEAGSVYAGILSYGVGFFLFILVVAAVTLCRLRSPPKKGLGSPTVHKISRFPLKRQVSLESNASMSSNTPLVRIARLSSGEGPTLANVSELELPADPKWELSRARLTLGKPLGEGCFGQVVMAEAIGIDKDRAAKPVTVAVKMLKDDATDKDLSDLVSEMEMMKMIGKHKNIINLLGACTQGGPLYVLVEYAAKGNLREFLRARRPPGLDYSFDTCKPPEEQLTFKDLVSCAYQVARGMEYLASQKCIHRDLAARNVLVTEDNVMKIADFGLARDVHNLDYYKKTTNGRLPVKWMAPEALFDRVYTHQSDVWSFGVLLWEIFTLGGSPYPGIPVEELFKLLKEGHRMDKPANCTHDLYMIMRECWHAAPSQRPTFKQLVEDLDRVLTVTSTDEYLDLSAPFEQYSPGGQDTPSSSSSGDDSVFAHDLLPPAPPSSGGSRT
VEGFR2, sequence (P35968 20-1356): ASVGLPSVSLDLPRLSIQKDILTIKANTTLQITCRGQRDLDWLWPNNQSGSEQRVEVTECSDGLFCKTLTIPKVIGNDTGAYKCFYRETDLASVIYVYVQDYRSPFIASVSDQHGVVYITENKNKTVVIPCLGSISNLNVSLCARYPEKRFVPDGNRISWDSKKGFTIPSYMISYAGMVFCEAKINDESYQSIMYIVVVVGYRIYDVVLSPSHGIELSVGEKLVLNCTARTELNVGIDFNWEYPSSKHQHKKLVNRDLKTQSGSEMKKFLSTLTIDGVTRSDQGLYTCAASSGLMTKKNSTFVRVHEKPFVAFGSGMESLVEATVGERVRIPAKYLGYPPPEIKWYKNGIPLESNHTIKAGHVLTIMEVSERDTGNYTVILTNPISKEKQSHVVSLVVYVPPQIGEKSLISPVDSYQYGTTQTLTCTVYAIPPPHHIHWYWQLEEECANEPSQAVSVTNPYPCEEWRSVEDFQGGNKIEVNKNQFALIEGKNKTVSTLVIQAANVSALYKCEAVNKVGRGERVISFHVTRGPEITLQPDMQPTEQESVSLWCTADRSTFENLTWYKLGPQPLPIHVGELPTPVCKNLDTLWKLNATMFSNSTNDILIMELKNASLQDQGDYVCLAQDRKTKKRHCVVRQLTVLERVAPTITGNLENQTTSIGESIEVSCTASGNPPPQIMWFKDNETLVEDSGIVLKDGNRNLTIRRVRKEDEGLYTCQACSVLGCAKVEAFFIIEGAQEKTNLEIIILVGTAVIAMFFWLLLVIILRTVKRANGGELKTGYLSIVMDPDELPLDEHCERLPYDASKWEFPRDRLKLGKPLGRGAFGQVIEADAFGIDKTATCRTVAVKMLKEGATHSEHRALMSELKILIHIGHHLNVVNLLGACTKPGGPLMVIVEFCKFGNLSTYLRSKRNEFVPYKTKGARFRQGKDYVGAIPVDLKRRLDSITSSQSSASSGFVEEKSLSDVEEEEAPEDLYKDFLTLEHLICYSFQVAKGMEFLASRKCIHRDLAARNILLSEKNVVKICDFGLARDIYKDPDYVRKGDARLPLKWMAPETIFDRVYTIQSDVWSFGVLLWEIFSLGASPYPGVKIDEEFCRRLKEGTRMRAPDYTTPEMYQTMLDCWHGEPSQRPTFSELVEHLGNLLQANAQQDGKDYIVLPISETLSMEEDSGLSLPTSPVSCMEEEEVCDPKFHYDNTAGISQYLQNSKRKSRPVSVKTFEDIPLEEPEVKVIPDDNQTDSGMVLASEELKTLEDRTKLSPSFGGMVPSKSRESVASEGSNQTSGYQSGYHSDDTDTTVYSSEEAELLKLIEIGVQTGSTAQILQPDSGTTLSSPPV

`Nc1nc(-c2ccn3c(-c4cc(NC(=O)NCC(F)(F)F)cc(OC5CCCC5)c4)cnc3c2)ncc1F` [Compound 281] gave an IC50 ([1]; BaF3) of 1400 nM and an inhibition at 0.1 µM ([2]; 3 h, read-out: FGFR3 % I) of 42%.
With `Cc1ccc(NC(=O)NCC(F)(F)F)cc1-c1cnc2cc(-c3ncc(F)c(N)n3)ccn12` [Compound 283] the IC50 [3] was greater than 10000 nM and the IC50 ([2]; read-out: FGFR3 IC50, […]) was greater than 1000 nM.
For `CCNc1nnc(-c2ccn3c(-c4cccc(NC(=O)NCC(F)(F)F)c4)cnc3c2)s1` [Compound 286], the inhibition at 10 µM [1, 6] was 0%, the inhibition at 0.0003 µM ([2]; 3 h, read-out: FGFR3 % I) was 57% and the inhibition at 3 µM ([4]; read-out: BaF3-TEL-FGFR3 prolif, % inhibition) was 55%.
For `COCCNc1nnc(-c2ccn3c(-c4cccc(NC(=O)NCC(F)(F)F)c4)cnc3c2)s1` [Compound 288], the inhibition at 10 µM [1, 6] was 7.8%, the inhibition at 0.0003 µM ([2]; 3 h, read-out: FGFR3 % I) was 54% and the IC50 [4] was 35 nM.
With `COc1cc(NC(=O)NCC(F)(F)F)cc(-c2cnc3cc(-c4ncccn4)ccn23)c1` [Compound 304] the inhibition at 3 µM ([3]; 1 h, at 3 μM, read-out: VEGFR2 % I) was 59% and the inhibition at 0.1 µM ([2]; 3 h, read-out: FGFR3 % I) was 55%.
`N#CCc1cc(NC(=O)NCC(F)(F)F)cc(-c2cnc3cc(-c4ccnc(C(F)(F)F)n4)ccn23)c1` [Compound 310] showed an IC50 [3] greater than 3000 nM and an inhibition at 0.3 µM ([2]; 3 h, read-out: FGFR3 % I) of 36%.
With `CC(C)(O)c1ccc(-c2ccn3c(-c4cccc(NC(=O)NCC(F)(F)F)c4)cnc3c2)cc1` [Compound 321] the IC50 ([1]; BaF3) was 460 nM, the inhibition at 0.0003 µM ([2]; 3 h, read-out: FGFR3 % I) was 36% and the IC50 [4] was 21 nM.
For `NC1CCN(c2ccc(-c3ccn4c(-c5cccc(NC(=O)NCC(F)(F)F)c5)cnc4c3)cn2)CC1` [Compound 330], the IC50 ([1]; BaF3) was 560 nM, the inhibition at 0.00097 µM ([2]; 3 h, read-out: FGFR3 % I) was 66% and the IC50 [4] was 27 nM.
`O=C(NCC(F)(F)F)Nc1cccc(-c2cnc3cc(-c4cccnn4)ccn23)c1` [Example 9, 1-[3-(7-Pyridazin-3-ylimidazo[1,2-a]pyridin-3-yl)phenyl]-3-(2,2,2-trifluoroethyl)urea hydrochloride] gave an IC50 ([1]; BaF3) of 6400 nM, an IC50 [5] of 0.14 µM and an IC50 [4] of 797 nM.
`CC(C)N1CC(n2cc(-c3ccn4c(-c5cccc(NC(=O)NCC(F)(F)F)c5)cnc4c3)cn2)C1` [Example 32, 1-(3-{7-[1-(1-Isopropylazetidin-3-yl)-1H-pyrazol-4-yl]imidazo[1,2-a]pyridin-3-yl}phenyl)-3-(2,2,2-trifluoroethyl)-urea] showed an IC50 ([1]; BaF3) of 670 nM, an IC50 [5] of 0.014 µM and an IC50 [4] of 12 nM.
`CN1CCCC(n2cc(-c3ccn4c(-c5cccc(NC(=O)NCC(F)(F)F)c5)cnc4c3)cn2)C1` (stereo not drawn) [Example 38, 1-(3-{7-[1-(1-Methylpiperidin-3-yl)-1H-pyrazol-4-yl]imidazo[1,2-a]pyridin-3-yl]phenyl)-3-(2,2,2-trifluoroethyl)urea hydrochloride] showed an IC50 ([1]; BaF3) of 440 nM, an IC50 [5] of 0.0086 µM and an IC50 [4] of 22 nM.
With `CCN1CCC(n2cc(-c3ccn4c(-c5cccc(NC(=O)NCC(F)(F)F)c5)cnc4c3)cn2)C1` (stereo not drawn) [Example 44, 1-(3-{7-[1-(1-Ethyl-pyrrolidin-3-yl)-1H-pyrazol-4-yl)-imidazo[1,2-a]pyridin-3-yl}-phenyl)-3-(2,2,2-trifluoro-ethyl)-urea] the IC50 ([1]; BaF3) was 900 nM, the IC50 [5] was 0.022 µM and the IC50 [4] was 45 nM.
With `CC(C)(C)OC(=O)N1CCC(n2cc(-c3ccn4c(-c5cncc(NC(=O)NCC(F)(F)F)c5)cnc4c3)cn2)CC1` [Example 55, 4-[4-(3-{5-[3-(2,2,2-Trifluoro-ethyl)-ureido]-pyridin-3-yl}-imidazo[1,2-a]pyridin-7-yl)-pyrazol-1-yl]-piperidine-1-carboxylic acid tert-butyl ester] the inhibition at 0.0003 µM ([2]; 3 h, read-out: FGFR3 % I) was 38%.
`CCN(CC)CCNC(=O)C(C)(C)n1cc(-c2ccn3c(-c4cccc(NC(=O)NCC(F)(F)F)c4)cnc3c2)cn1` [Example 68, N-(2-Diethylamino-ethyl)-2-[4-(3 {3-[3-(2,2,2-trifluoro-ethyl)-ureido]-phenyl}-imidazo[1,2-a]pyridin-7-yl)-pyrazol-1-yl]-isobutyramide] gave an inhibition at 10 µM [1, 7] of 36%, an IC50 [5] of 0.53 µM and an IC50 [4] of 1500 nM.
With `CNC(=O)C(C)(C)n1cc(-c2ccn3c(-c4cccc(NC(=O)NCC(F)(F)F)c4)cnc3c2)cn1` [Example 69, N-Methyl-2-[4-(3-{3-[3-(2,2,2-trifluoro-ethyl)-ureido]-phenyl}-imidazo[1,2-a]pyridin-7-yl)-pyrazol-1-yl]-isobutyramide] the IC50 ([1]; BaF3) was 4600 nM, the IC50 [5] was 0.096 µM and the IC50 [4] was 260 nM.
In the case of `CC(C)(C(N)=O)n1cc(-c2ccn3c(-c4cccc(NC(=O)NCC(F)(F)F)c4)cnc3c2)cn1` [Example 72, 2-[4-(3-{3-[3-(2,2,2-Trifluoro-ethyl)-ureido]-phenyl}-imidazo[1,2-a]pyridin-7-yl)-pyrazol-1-yl]-isobutyramide], the inhibition at 10 µM [1, 7] is reported as 32%, the IC50 [5] is reported as 0.3 µM and the IC50 [4] is reported as 760 nM.
`Cc1noc(C)c1C#Cc1ccn2c(-c3cccc(NC(=O)NCC(F)(F)F)c3)cnc2c1` [Example 112, 1-{3-[7-(3,5-Dimethyl-isoxazol-4-ylethynyl)-imidazo[1,2-a]pyridin-3-yl]-phenyl}-3-(2,2,2-trifluoro-ethyl)-urea trifluoroacetate] showed an inhibition at 0.3 µM ([2]; 3 h, read-out: FGFR3 % I) of 49%.
`Nc1cc(Cl)cnc1-c1ccn2c(-c3cccc(NC(=O)NCC(F)(F)F)c3)cnc2c1` [Example 146, 1-{3-[7-(3-Amino-5-chloro-pyridin-2-yl)-imidazo[1,2-a]pyridin-3-yl]-phenyl}-3-(2,2,2-trifluoro-ethyl)-urea] gave an inhibition at 10 µM [1, 6] of 1.2% and an inhibition at 1 µM ([3]; 1 h, read-out: VEGFR2 % I) of 51%.
Work on `CNc1nc(-c2ccn3c(-c4cccc(NC(=O)NCC(F)(F)F)c4)cnc3c2)ncc1F` [Example 162] yielded an inhibition at 3 µM [1, 6] of 37%, an inhibition at 1 µM ([3]; 1 h, read-out: VEGFR2 % I) of 59% and an IC50 [5] of 0.091 µM.
